In this assay the test system is CHK2 phosphorylation (phospho-Thr68) in HCT116 cells. The assay can be described thus: Cellular pCHK2 assay, bleomycin-induced phosphorylation of CHK2 (phospho-Thr68), immunofluorescence high content. The assay is classed as cell-based. Conditions: Homo sapiens, HCT-116; HCT116 cells, 10 μM bleomycin, 4 h; read-out: IC50 (pCHK2). The text has this:
For the identification of substances which inhibit the phosphorylation of the protein kinase CHK2 at the amino acid threonine 68, an immunofluorescence-based “high content” analysis assay was used in HCT116 cells.
In vitro cell-based immunofluorescence assay for the identification of inhibitors of bleomycin-induced phosphorylation of CHK2 (phospho-Thr68) in the human colon carcinoma cell line HCT116:
HCT116 cells are sown out in a defined cell density in 384-well plates in culture medium (DMEM high glucose, 2 mM GlutaMax, 1 mM Na pyruvate, 10% FCS) and incubated overnight at 37° C. and 10% of CO2. On the following day, the test substances are added in a defined concentration range (1 nM to 30 μM) in combination with 10 μM bleomycin, where the concentration of the solvent DMSO is kept constant at 0.5%. After incubation for four hours at 37° C. and 10% of CO2, the cells are fixed (5 min, 4% formaldehyde in PBS), permeabilised (10 min, 0.2% Triton X-100 in PBS) and, after blocking of nonspecific binding sites (10% goat serum, 1% BSA in PBS), incubated overnight at 4° C. with a specific anti-pCHK2 antibody (cell signalling #2661). pCHK2 (Thr68) is determined using an Alexa488-labelled secondary anti-rabbit IgG antibody. Parallel staining of DNA with propidium iodide enables determination of the cell count. The pCHK2 signal is detected using a high-content imager (Molecular Devices IMX Ultra) and automatic image analysis using the MetaXpress software belonging to the instrument. The number of cell nuclei which have a pCHK2 signal above a defined background is determined.
Turning to `COc1cc2ncc3c(c2cc1-c1cnn(C)n1)n(-c1ncc(F)cc1F)c(=O)n3C` [compound 101, 1-(3,5-Difluoropyridin-2-yl)-7-methoxy-3-methyl-8-(2-methyl-2H-1,2,3-triazol-4-yl)-1,3-dihydroimidazo-[4,5-c]quinolin-2-one], the concentration for half-maximal inhibition (IC50) is under 200 nM.

As to `COc1cnc(-n2c(=O)n(C)c3cnc4cc(OC)c(-c5cn(C)nn5)cc4c32)c(F)c1` [compound 133, 1-(3-Fluoro-5-methoxy-pyridin-2-yl)-7-methoxy-3-methyl-8-(1-methyl-1H-1,2,3-triazol-4-yl)-1,3-dihydroimidazo[4,5-c] quinolin-2-one], the IC50 lay in the range of 200 to 1000 nM.

Regarding `COc1cc2ncc3c(c2cc1-c1cnn(C)c1)n(-c1ncc(OCC2CN(C)C2)cc1F)c(=O)n3C` [compound 207, 1-[3-Fluoro-5-(1-methyl-azetidin-3-ylmethoxy)-pyridin-2-yl]-7-methoxy-3-methyl-8-(1-methyl-1H-pyrazol-4-yl)-1,3-dihydro-imidazo[4,5-c]quinolin-2-one], the IC50 lay in the range of 200 to 1000 nM.

For `COc1cc2ncc3c(c2cc1-c1cnn(C)n1)n(-c1cn(C)nc1C)c(=O)n3C` [compound 102, 1-(1,3-Dimethyl-1H-pyrazol-4-yl)-7-methoxy-3-methyl-8-(2-methyl-2H-1,2,3-triazol-4-yl)-1,3-dihydroimidazo-[4,5-c]quinolin-2-one], the concentration for half-maximal inhibition (IC50) is under 200 nM.

On to `COc1cc2ncc3c(c2cc1-c1cnn(C)c1)n(-c1ccncc1C1CC1)c(=O)n3C` [compound 200, 1-(3-Cyclopropylpyridin-4-yl)-7-methoxy-3-methyl-8-(1-methyl-1H-pyrazol-4-yl)-1,3-dihydroimidazo[4,5-c] quinolin-2-one], for which the concentration for half-maximal inhibition (IC50) lay in the range of 200 to 1000 nM.

As for `COc1cnc(-n2c(=O)n(C)c3cnc4cc(OC)c(-c5ccn[nH]5)cc4c32)c(F)c1` [compound 109, 1-(3-Fluoro-5-methoxy-pyridin-2-yl)-7-methoxy-3-methyl-8-(2H-pyrazol-3-yl)-1,3-dihydroimidazo[4,5-c] quinolin-2-one], the IC50 is under 200 nM.

In the case of `CCn1cc(-c2cc3c(cc2OC)ncc2c3n(-c3ncc(OC)cc3F)c(=O)n2C)cn1` [compound 111, 8-(1-Ethyl-1H-pyrazol-4-yl)-1-(3-fluoro-5-methoxy-pyridin-2-yl)-7-methoxy-3-methyl-1,3-dihydroimidazo-[4,5-c]quinolin-2-one], the IC50 fell in the range of 200 to 1000 nM.

Regarding `CNCCOc1cnc(-n2c(=O)n(C)c3cnc4cc(OC)c(-c5cnn(C)c5)cc4c32)c(F)c1` [compound 206], the IC50 lay within 200 to 1000 nM.

For `COc1cc2ncc3c(c2cc1-c1cnn(C)c1)n(-c1c(F)cncc1OCF)c(=O)n3C` [compound 148], the half-maximal inhibitory concentration (IC50) is under 200 nM.

Take `[2H]C([2H])([2H])Oc1cncc(F)c1-n1c(=O)n(C)c2cnc3cc(OC)c(-c4cn(C)nc4C)cc3c21` [compound 150, 8-(1,3-Dimethylpyrazol-4-yl)-1-[3-fluoro-5-(trideuterio-methoxy)-4-pyridyl]-7-methoxy-3-methyl-imidazo-[4,5-c]quinolin-2-one]: the IC50 is under 200 nM.

Turning to `COc1cc2ncc3c(c2cc1-c1cn(C)nn1)n(-c1ccncc1F)c(=O)n3C` [compound 64, 1-(3-Fluoropyridin-4-yl)-7-methoxy-3-methyl-8-(1-methyl-1H-1,2,3-triazol-4-yl)-1,3-dihydroimidazo-[4,5-c]quinolin-2-one], the IC50 lay in the range of 200 to 1000 nM.

As for `COc1cc2ncc3c(c2cc1-c1cnn[nH]1)n(-c1c(F)cncc1OC)c(=O)n3C` [compound 134, 1-(3-Fluoro-5-methoxy-pyridin-4-yl)-7-methoxy-3-methyl-8-(3H-1,2,3-triazol-4-yl)-1,3-dihydroimidazo-[4,5-c]quinolin-2-one], the IC50 fell in the range of 200 to 1000 nM.

As to `COc1cc2ncc3c(c2cc1-c1cnc2nc(C)[nH]c2c1)n(-c1cn(C)nc1C)c(=O)n3C` [compound 154, 1-(1,3-Dimethyl-1H-pyrazol-4-yl)-7-methoxy-3-methyl-8-(2-methyl-1H-imidazo[4,5-b]pyridin-6-yl)-1,3-dihydro-imidazo[4,5-c]quinolin-2-one], the concentration for half-maximal inhibition (IC50) is 1000 to 2000 nM.

In the case of `COc1cc2ncc3c(c2cc1-c1n[nH]cc1C)n(-c1cn(C)nc1C)c(=O)n3C` [compound 151, 1-(1,3-Dimethyl-1H-pyrazol-4-yl)-7-methoxy-3-methyl-8-(4-methyl-1H-pyrazol-3-yl)-1,3-dihydroimidazo[4,5-c] quinolin-2-one], the IC50 was under 200 nM.

Turning to `COc1cnc(-n2c(=O)[nH]c3cnc4cc(OC)c(-c5cnn(C)c5)cc4c32)c(F)c1` [compound 115, 1-(3-Fluoro-5-methoxy-pyridin-2-yl)-7-methoxy-8-(1-methyl-1H-pyrazol-4-yl)-1,3-dihydroimidazo[4,5-c]-quinolin-2-one], the half-maximal inhibitory concentration (IC50) is 200 to 1000 nM.

With `COc1cc2ncc3c(c2cc1-c1cc(N)n[nH]1)n(-c1ncccc1F)c(=O)n3C` [compound 65, 8-(3-Amino-1H-pyrazol-5-yl)-1-(3-fluoro-2-pyridyl)-7-methoxy-3-methyl-imidazo-[4,5-c]quinolin-2-one], the IC50 lay in the range of 200 to 1000 nM.

Consider `CCn1cc(-n2c(=O)n(C)c3cnc4cc(OC)c(-c5cn(C)nc5C)cc4c32)c(C)n1` [compound 135, 8-(1,3-Dimethyl-1H-pyrazol-4-yl)-1-(1-ethyl-3-methyl-1H-pyrazol-4-yl)-7-methoxy-3-methyl-1,3-dihydro-imidazo[4,5-c]quinolin-2-one], for which the IC50 was 200 to 1000 nM.

In the case of `COc1cc2ncc3c(c2cc1-c1cnn(C)c1)n(-c1ccc(C#N)cn1)c(=O)n3C` [Compound Example 48, 6-[7-Methoxy-3-methyl-8-(1-methyl-1H-pyrazol-4-yl)-2-oxo-2,3-dihydroimidazo-[4,5-c]quinolin-1-yl]-nicotinonitrile], the concentration for half-maximal inhibition (IC50) lay in the range of 200 to 1000 nM.

For `COc1cnc(-n2c(=O)n(C)c3cnc4cc(OC)c(-c5cnn[nH]5)cc4c32)c(F)c1` [compound 128, 1-(3-Fluoro-5-methoxy-pyridin-2-yl)-7-methoxy-3-methyl-8-(3H-1,2,3-triazol-4-yl)-1,3-dihydroimidazo-[4,5-c]quinolin-2-one], the IC50 was 200 to 1000 nM.

In the case of `COc1cc2ncc3c(c2cc1-c1ccn[nH]1)n(-c1c(F)cncc1OC)c(=O)n3C` [compound 124, 1-(3-Fluoro-5-methoxy-pyridin-4-yl)-7-methoxy-3-methyl-8-(2H-pyrazol-3-yl)-1,3-dihydroimidazo[4,5-c] quinolin-2-one], the IC50 is 200 to 1000 nM.

Regarding `COc1cnc(-n2c(=O)n(C)c3cnc4cc(OC)c(-c5ccc6nc[nH]c6c5)cc4c32)c(F)c1` [compound 153, 8-(3H-Benzimidazol-5-yl)-1-(3-fluoro-5-methoxypyridin-2-yl)-7-methoxy-3-methyl-1,3-dihydroimidazo[4,5-c]-quinolin-2-one], the 50% inhibitory concentration (IC50) was in the range of 200 to 1000 nM.

Turning to `CCn1cc(-n2c(=O)n(C)c3cnc4cc(OC)c(-c5cnn(C)c5)cc4c32)c(C)n1` [compound 130, 1-(1-Ethyl-3-methyl-1H-pyrazol-4-yl)-7-methoxy-3-methyl-8-(1-methyl-1H-pyrazol-4-yl)-1,3-dihydro-imidazo[4,5-c]quinolin-2-one], the half-inhibitory concentration (IC50) was 200 to 1000 nM.

For `COc1cc2ncc3c(c2cc1-c1cnn(C)c1)n(-c1ccc2cc[nH]c2n1)c(=O)n3C` [compound 69, 7-Methoxy-3-methyl-8-(1-methyl-1H-pyrazol-4-yl)-1-(1H-pyrrolo[2,3-b]pyridin-6-yl)1,3-dihydroimidazo-[4,5-c]quinolin-2-one], the 50% inhibitory concentration (IC50) was 200 to 1000 nM.
